According to US8691851B2, “Lanthanide metal complexes useful in treating cancer” (National University of Singapore, priority 2009, dated 2014):

Columns and labels:
[1] = test system: PTEN, RhoB, MnSOD; conditions: HCT-116 tumors, 100 μg or 200 μg per mouse, 21 days of treatment
Procedure: HCT-116 colorectal tumor cells were grafted onto nude mice. Tumor-bearing mice were then treated with solvent control or different concentrations of (100 μg, 200 μg) C19H24N3O5S5Pr. After 21 days of treatment, the mice were sacrificed, after which tumors were harvested and proteins extracted for Western Blot analysis.

[2] = test system: PTEN and MnSOD mRNA; conditions: SHEP-1 cells, 10 uM, 4 hr, 8 hr and 18 h
Procedure: This example illustrates the effect of C19H24N3O5S5Pr on the mRNA levels of PTEN and MnSOD in SHEP-1 cancer cells. mRNA levels of PTEN and MnSOD were assayed by real time PCR after treatment with 10 uM Pr-MPO for 4 hr, 8 hr and 18 h.

[3] = biological target: T1, pCMX-Gal-mPPARγ-LBD (Mus musculus, UniProt P37238); assay: Gal4 chimeric receptor luciferase reporter (Method 2); format: cell-based; conditions: SHEP-1 cells, 3 μM, 5 μM, 10 μM and 20 μM
T1 construct: expressed in transfected cells; host or cells: SHEP-1 cells
T1 sequence (P37238 238-503 limits assumed): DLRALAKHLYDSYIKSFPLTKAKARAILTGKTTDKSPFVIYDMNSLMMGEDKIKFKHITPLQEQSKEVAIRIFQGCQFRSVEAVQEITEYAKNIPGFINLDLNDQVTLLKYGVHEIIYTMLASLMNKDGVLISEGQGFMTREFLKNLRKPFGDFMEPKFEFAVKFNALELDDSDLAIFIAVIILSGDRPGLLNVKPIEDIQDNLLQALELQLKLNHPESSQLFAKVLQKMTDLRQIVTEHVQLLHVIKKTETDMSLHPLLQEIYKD
From the text: In Method 2, SHEP-1 cancer cells were transfected with a reporter gene containing four copies of a Gal4 binding site (pMH100x4-TK-Luc) and chimeric receptors of a single PPAR isoform (pCMX-Gal-mPPARα-LBD, pCMX-Gal-mPPARδ-LBD, or pCMX-Gal-mPPARγ-LBD, respectively) as previously described in Kim et al, Toxicological Sciences, 85, (2005), pp. 585-593. When C19H24N3O5S5Pr binds to the ligand binding domain (LBD) of the chimeric receptor, the DNA binding domain of Gal4 binds to co-transfected Gal4 binding site and initiates transcription of the firefly luciferase.

[4] = test system: LC3 II; assay: LC3 II formation by Western blot; format: cell-based; conditions: SHEP-1 and SHSY5Y cells, 5 μM and 10 μM, 4 hr, 8 hr and 18 hr
[5] = test system: SHEP-1 and MDA-MB-231 cancer cells; assay: Morphological changes of cancer cells; format: cell-based; conditions: SHEP-1 5 μM, MDA-MB-231 10 μM, compound alone
[6] = test system: HCT-116 colorectal tumor cells
Procedure: HCT-116 colorectal tumor cells were grafted subcutaneously onto nude mice. Tumor-bearing mice were then treated with solvent control (water) or different concentrations of (100 μg, 200 μg) C19H24N3O5S5Pr on day 1, day 5, day 9, day 12, and day 15. Tumor volumes (mm^3) were measured on day 1, day 5, day 8, day 9, day 12, day 14 and day 16. Tumor volumes in treated mice were compared with those of control mice.

[7] = test system: caspases; conditions: cancer cells
[8] = biological target: T2, PPARγ (Homo sapiens, UniProt P37231); assay: 3×PPRE luciferase reporter, PPARγ activation in breast cancer cells; format: cell-based; design: endogenous in cells; host or cells: MDA-MB-231, T47D (breast cancer); conditions: 0 to 20 μM, 18 hours
T2 sequence (P37231 1-505): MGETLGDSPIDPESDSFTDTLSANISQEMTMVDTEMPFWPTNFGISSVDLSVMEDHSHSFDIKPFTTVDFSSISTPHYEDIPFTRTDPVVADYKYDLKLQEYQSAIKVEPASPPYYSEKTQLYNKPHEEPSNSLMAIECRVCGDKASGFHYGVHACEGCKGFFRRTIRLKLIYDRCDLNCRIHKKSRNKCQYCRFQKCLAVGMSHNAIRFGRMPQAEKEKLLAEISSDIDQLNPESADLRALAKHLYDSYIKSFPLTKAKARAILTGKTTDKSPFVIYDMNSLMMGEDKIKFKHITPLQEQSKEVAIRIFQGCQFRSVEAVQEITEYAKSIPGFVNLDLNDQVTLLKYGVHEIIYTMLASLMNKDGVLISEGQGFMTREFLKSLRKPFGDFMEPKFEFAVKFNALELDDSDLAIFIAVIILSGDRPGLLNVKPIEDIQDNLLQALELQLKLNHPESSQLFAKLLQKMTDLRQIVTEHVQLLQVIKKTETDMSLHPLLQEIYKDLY
From the text: To determine if C19H24N3O5S5Pr activation of PPARγ is dependent on expression of PPARγ in breast cancer cells, breast cancer cells MDA-MB-231 and T47D were transiently co-transfected with a 3×PPRE luciferase plasmid and renilla plasmid for transfection efficiency.

[9] = biological target: T2, PPARγ; assay: pPPREx3-TKLuc reporter with PPAR-γ short-hairpin RNA silencing (Method 1); format: cell-based; design: endogenous in cells; host or cells: SHSY5Y, SHEP1 / SHEP-1 (neuroblastoma); MDA-MB-231, T47D (breast cancer); conditions: SHEP-1 cells, 5 uM and 10 uM, 18 hr
From the text: In Method 1, a reporter plasmid containing three copies of the PPAR response element (pPPREx3-TKLuc) as illustrated in FIG. 19A and as previously described in Kim et al, Toxicological Sciences, 85, (2005), pp. 585-593, was transfected into SHEP-1 cancer cells. This system directly measures activation of endogenous PPAR via transcriptional activation of the luciferase reporter gene as a result of PPARγ binding to the PPAR response element (PPRE). To determine whether PPARγ receptor is activated by C19H24N3O5S5Pr, the SHEP-1 cancer cells was transiently transfected with either short-hairpin RNA plasmid targeting PPAR-γ protein or short hairpin RNA negative control. The cells were exposed to varying doses (5 uM, 10 uM) of C19H24N3O5S5Pr for 18 hr.

## CS(C)=O.CS(C)=O.[O-][n+]1ccccc1[S-].[O-][n+]1ccccc1[S-].[O-][n+]1ccccc1[S-].[Pr+3] [C19H24N3O5S5Pr, praseodymium (2-mercaptopyridine N-oxide)(dimethylsulfoxide)]
[1]
  PTEN, RhoB and MnSOD protein expression in tumors: regulated
[2]
  mRNA levels of PTEN and MnSOD: also found at the mRNA level
[3]
  luciferase activity, PPARγ LBD chimeric receptor: induction of luciferase activity
[4]
  LC3 II induction: induction of phosphtidylethaonolamine (PE)-conjugated form of microtubule-associated protein 1 light chain 3 (LC3 II)
[5]
  cell morphology: rounded up and also lower in cell density
[6]; 100 μg or 200 μg on day 1, 5, 9, 12 and 15, measured to day 16
  tumor size compared to control mice: did not show a substantial increase in tumor size
[6]; 200 μg
  tumor growth suppression/inhibition versus control mice: at least 3 fold
[6]; dosage increased from 100 μg to 200 μg
  tumor activity suppressed/inhibited, 200 μg versus 100 μg: at least 2 fold
[7]
  caspase activation: does not activate caspases
[8]
  PPARγ activation, MDA-MB-231 versus T47D cells: activates PPARγ better in MDA-MB-231 cells, than in T47D cells
[9]
  luciferase activity upon silencing of PPARγ protein: luciferase activity was abrogated
